Experimental data: PubChem BioAssay (NCI)
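96-well plates; 48 h exposure; 5 concentrations. Endpoints by linear interpolation between flanking doses. Not reached: highest tested concentration assigned. GI50: concentration for 50% inhibition of growth. Definition used: TGI = concentration required for complete inhibition of growth.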

What was measured:
Experiment in all cases: inhibition of tumour cell growth, NCI panel, 48 h
786-0 renal = test system: 786-0 renal
A498 renal = test system: A498 renal
A549 NSCLC = test system: A549 NSCLC
ACHN renal = test system: ACHN renal
BT-549 breast = test system: BT-549 breast
CAKI-1 renal = test system: CAKI-1 renal
CCRF-CEM leukemia = test system: CCRF-CEM leukemia
COLO 205 colon = test system: COLO 205 colon
DU-145 prostate = test system: DU-145 prostate
EKVX NSCLC = test system: EKVX NSCLC
HCC-2998 colon = test system: HCC-2998 colon
HCT-116 colon = test system: HCT-116 colon
HCT-15 colon = test system: HCT-15 colon
HL-60(TB) leukemia = test system: HL-60(TB) leukemia
HOP-62 NSCLC = test system: HOP-62 NSCLC
HOP-92 NSCLC = test system: HOP-92 NSCLC
HS 578T breast = test system: HS 578T breast
HT29 colon = test system: HT29 colon
IGROV1 ovarian = test system: IGROV1 ovarian
K-562 leukemia = test system: K-562 leukemia
KM12 colon = test system: KM12 colon
LOX IMVI melanoma = test system: LOX IMVI melanoma
M14 melanoma = test system: M14 melanoma
MALME-3M melanoma = test system: MALME-3M melanoma
MCF7 breast = test system: MCF7 breast
MDA-MB-231 breast = test system: MDA-MB-231 breast
MDA-MB-435 = test system: MDA-MB-435
MOLT-4 leukemia = test system: MOLT-4 leukemia
NCI-H226 lung = test system: NCI-H226 lung
NCI-H23 lung = test system: NCI-H23 lung
NCI-H460 lung = test system: NCI-H460 lung
NCI-H522 lung = test system: NCI-H522 lung
NCI/ADR-RES ovarian = test system: NCI/ADR-RES ovarian
OVCAR-3 ovarian = test system: OVCAR-3 ovarian
OVCAR-4 ovarian = test system: OVCAR-4 ovarian
OVCAR-5 ovarian = test system: OVCAR-5 ovarian
OVCAR-8 ovarian = test system: OVCAR-8 ovarian
PC-3 prostate = test system: PC-3 prostate
RXF 393 renal = test system: RXF 393 renal
SF-268 CNS = test system: SF-268 CNS
SF-295 CNS = test system: SF-295 CNS
SF-539 CNS = test system: SF-539 CNS
SK-MEL-2 melanoma = test system: SK-MEL-2 melanoma
SK-MEL-28 melanoma = test system: SK-MEL-28 melanoma
SK-MEL-5 melanoma = test system: SK-MEL-5 melanoma
SK-OV-3 ovarian = test system: SK-OV-3 ovarian
SN12C renal = test system: SN12C renal
SNB-19 CNS = test system: SNB-19 CNS
SNB-75 CNS = test system: SNB-75 CNS
SR leukemia = test system: SR leukemia
SW-620 colon = test system: SW-620 colon
T-47D breast = test system: T-47D breast
TK-10 renal = test system: TK-10 renal
U251 CNS = test system: U251 CNS
UACC-257 melanoma = test system: UACC-257 melanoma
UACC-62 melanoma = test system: UACC-62 melanoma
UO-31 renal = test system: UO-31 renal

CC1(C)CC[C@]2(C(N)=O)CC[C@]3(C)C(=CC[C@@H]4[C@@]5(C)C/C(=C/c6cccnc6)C(=O)C(C)(C)[C@@H]5CC[C@]43C)[C@@H]2C1
GI50 (786-0 renal): 3.85 µM
TGI (786-0 renal): 30.5 µM
GI50 (A498 renal): 2.06 µM
TGI (A498 renal): 4.06 µM
GI50 (A549 NSCLC): 3.31 µM
TGI (A549 NSCLC): > 100 µM
GI50 (ACHN renal): 3.49 µM
TGI (ACHN renal): 13.6 µM
GI50 (BT-549 breast): 2.61 µM
TGI (BT-549 breast): 6.83 µM
GI50 (CAKI-1 renal): 2.92 µM
TGI (CAKI-1 renal): 13 µM
GI50 (CCRF-CEM leukemia): 2.54 µM
TGI (CCRF-CEM leukemia): 7.73 µM
GI50 (COLO 205 colon): 1.86 µM
TGI (COLO 205 colon): 3.76 µM
GI50 (DU-145 prostate): 3.52 µM
TGI (DU-145 prostate): 16.5 µM
GI50 (EKVX NSCLC): 3.44 µM
TGI (EKVX NSCLC): > 100 µM
GI50 (HCC-2998 colon): 1.71 µM
TGI (HCC-2998 colon): 3.34 µM
GI50 (HCT-116 colon): 1.8 µM
TGI (HCT-116 colon): 3.68 µM
GI50 (HCT-15 colon): 2.09 µM
TGI (HCT-15 colon): 4.31 µM
GI50 (HL-60(TB) leukemia): 2.04 µM
TGI (HL-60(TB) leukemia): 4.55 µM
GI50 (HOP-62 NSCLC): 2.84 µM
TGI (HOP-62 NSCLC): 10.1 µM
GI50 (HOP-92 NSCLC): 2.66 µM
TGI (HOP-92 NSCLC): 8.7 µM
GI50 (HS 578T breast): 5.93 µM
TGI (HS 578T breast): > 100 µM
GI50 (HT29 colon): 2.1 µM
TGI (HT29 colon): 4.56 µM
GI50 (IGROV1 ovarian): 3.62 µM
TGI (IGROV1 ovarian): 73 µM
GI50 (K-562 leukemia): 2.4 µM
TGI (K-562 leukemia): 7.11 µM
GI50 (KM12 colon): 2.28 µM
TGI (KM12 colon): 5.72 µM
GI50 (LOX IMVI melanoma): 1.71 µM
TGI (LOX IMVI melanoma): 3.24 µM
GI50 (M14 melanoma): 3.38 µM
TGI (M14 melanoma): 10.9 µM
GI50 (MALME-3M melanoma): 1.9 µM
TGI (MALME-3M melanoma): 4.05 µM
GI50 (MCF7 breast): 2.71 µM
TGI (MCF7 breast): 13.7 µM
GI50 (MDA-MB-231 breast): 3.8 µM
TGI (MDA-MB-231 breast): 22.3 µM
GI50 (MDA-MB-435): 3.15 µM
TGI (MDA-MB-435): 11.2 µM
GI50 (MOLT-4 leukemia): 2.01 µM
TGI (MOLT-4 leukemia): 6.3 µM
GI50 (NCI-H226 lung): 2.09 µM
TGI (NCI-H226 lung): 5.78 µM
GI50 (NCI-H23 lung): 3.31 µM
TGI (NCI-H23 lung): > 100 µM
GI50 (NCI-H460 lung): 2.2 µM
TGI (NCI-H460 lung): 5.33 µM
GI50 (NCI-H522 lung): 2.43 µM
TGI (NCI-H522 lung): 8.11 µM
GI50 (NCI/ADR-RES ovarian): 2.71 µM
TGI (NCI/ADR-RES ovarian): 8.96 µM
GI50 (OVCAR-3 ovarian): 1.86 µM
TGI (OVCAR-3 ovarian): 3.53 µM
GI50 (OVCAR-4 ovarian): 7.1 µM
TGI (OVCAR-4 ovarian): > 100 µM
GI50 (OVCAR-5 ovarian): 1.93 µM
TGI (OVCAR-5 ovarian): 4.16 µM
GI50 (OVCAR-8 ovarian): 3.69 µM
TGI (OVCAR-8 ovarian): > 100 µM
GI50 (PC-3 prostate): 2.56 µM
TGI (PC-3 prostate): 13.4 µM
GI50 (RXF 393 renal): 1.67 µM
TGI (RXF 393 renal): 3.3 µM
GI50 (SF-268 CNS): 3.8 µM
TGI (SF-268 CNS): 18 µM
GI50 (SF-295 CNS): 3.16 µM
TGI (SF-295 CNS): 11.2 µM
GI50 (SF-539 CNS): 1.97 µM
TGI (SF-539 CNS): 3.9 µM
GI50 (SK-MEL-2 melanoma): 2.22 µM
TGI (SK-MEL-2 melanoma): 4.99 µM
GI50 (SK-MEL-28 melanoma): 2.26 µM
TGI (SK-MEL-28 melanoma): 4.71 µM
GI50 (SK-MEL-5 melanoma): 1.81 µM
TGI (SK-MEL-5 melanoma): 3.33 µM
GI50 (SK-OV-3 ovarian): 3.95 µM
TGI (SK-OV-3 ovarian): > 100 µM
GI50 (SN12C renal): 2.31 µM
TGI (SN12C renal): 5.24 µM
GI50 (SNB-19 CNS): 4.03 µM
TGI (SNB-19 CNS): 16.5 µM
GI50 (SNB-75 CNS): 9.92 µM
TGI (SNB-75 CNS): > 100 µM
GI50 (SR leukemia): 2.34 µM
TGI (SR leukemia): 7.14 µM
GI50 (SW-620 colon): 3 µM
TGI (SW-620 colon): > 100 µM
GI50 (T-47D breast): 2.66 µM
TGI (T-47D breast): 11.4 µM
GI50 (TK-10 renal): 4.05 µM
TGI (TK-10 renal): 30.2 µM
GI50 (U251 CNS): 3.19 µM
TGI (U251 CNS): 11.2 µM
GI50 (UACC-257 melanoma): 3.2 µM
TGI (UACC-257 melanoma): 12.1 µM
GI50 (UACC-62 melanoma): 2.21 µM
TGI (UACC-62 melanoma): 5.13 µM
GI50 (UO-31 renal): 2.28 µM
TGI (UO-31 renal): 6.83 µM
